Experimental data reported in patent US20160375042A1, “USE OF CAMPTOTHECIN DERIVATIVE IN PREPARING PHARMACEUTICAL USED FOR TREATING MULTIPLE MYELOMA” (priority 2014, published 2016).
Where “and” joins values, the source holds several entries; their conditions need not be identical. Equal entries are not always repeated.

Experiments:
[1] = Plasma concentration of WQ1001 (HM 910) and its metabolite CPT in rats after intravenous injection; format: in vivo; conditions: for HM 910 Plasma / HM 910 Plasma (ng/mL): individual rats 1-6
Method: Intravenous administration in rats: six healthy SD rats, weighing 180˜220 g, three males and three females. Fasting for 12 h before dosing, free access to water. 20 mg/kg of HM 910 was administrated by intravenous bolus injection though caudal vein of the rats, with dose-volume volume of 1.0 mL/kg. Blooding 0.25 mL from the animal through the jugular vein, anti-clotting with heparin sodium, adding 0.2% formic acid within the anticoagulant. Blooding at following time points: 5 min, 15 min, 30 min, 45 min, 1 h, 1.5 h, 2 h, 2.5 h, 3 h, 4 h before and after administration. Blood samples were placed on ice after blooding and the plasma was centrifugal separated within 30 minutes (centrifugation conditions: 8000 r/min, 6 minutes, room temperature). The plasma collected was stored at −80° C. for analysis.

[2] = test system: S1 and S1-M1-80 (characteristic expression of ABCG2/BCRP); assay: Anti-drug resistance test (MTT, resistance index); format: cell-based; conditions: S1-M1-80 (ABCG2/BCRP) versus S1 cells, 72 h, from IC50
Method: Logarithmic growth phase S1 and S1-M1-80 (characteristic expression of ABCG2/BCRP) were prepared as cell suspension of 2.5×10^4 cells/ml and 6×10^4 cells/ml, and were seeded in into 96-well plates with 0.19 ml/well. After incubating in cell incubator for 24 hours at 37° C., 5% CO2, sample solutions in various concentrations were added at 0.01 ml/well. Stroke-physiological saline solution is used as control well. Each treatment is conducted in 3 parallel wells. The drugs were added and incubated additional 72 h hours. And 5 mg/ml of MTT is added at 0.02 ml/well before four hours of the end the incubation. The culture liquid is removed at the end of incubation. Each well was added 0.1 ml of DMSO and OD values were measured at wavelength of 540 nm and reference wavelength of 655 nm. The experiment was repeated three times. Equation 1 is used to calculate cell growth inhibition rate (IR); and Equation 2 is used to calculate resistance index. Bliss method is used to calculate the 50% inhibitory concentration (IC50).

[3] = test system: human multiple myeloma cells NCI-H929 xenografts; assay: Tumor inhibitory effect on multiple myeloma cells NCI-H929 xenografts in nude mice; format: in vivo, BALB/c nude mouse; conditions: for IR By RTV % / IR By TW % / RTV (X ± SD) / TW (X ± SD, g) / Bw (X ± SD, g) end / TV (X ± SD, mm^3) End / Bw (X ± SD, g) initial / TV (X ± SD, mm^3) initial: once every 4 days, intraperitoneal; for IR By RTV % / IR By TW % / RTV (X ± SD) / TW (X ± SD, g): 11th day; for Bw (X ± SD, g) end / TV (X ± SD, mm^3) End: end (11th day after inoculation)
Method: Multiple myeloma cells were routinely passaged in vitro, inoculated in 40 6-7-week-old BALB/c nude mouse, each mouse was subcutaneously injected human multiple myeloma cells NCI-H929 at its right axillary. Weighed after two days. The mice were randomly divided into five groups, eight in each group. Each group was dosed as follows: • i. physiological saline control group • ii. Topotecan positive control group, 2 mg/kg, once every 4 days, intraperitoneal injection • iii. WQ1001, high-dose group, 35 mg/kg, once every 4 days, intraperitoneal injection • iv. WQ1001, middle dose group, 25 mg/kg, once every 4 days, intraperitoneal injectionv. v. WQ1001, low dose group, 18 mg/kg, once every 4 days, intraperitoneal injection
Body weight(BW) as well as long diameter and short diameter of tumors were measured every two days. Tumor volume was calculated according to the Equation 1. On the 11th day after inoculation, the mice were weighed, long diameter and short diameter of tumors were measured, and relative tumor volume (RTV) was calculated according to Equation 2. Mice were sacrificed by cervical dislocation and the tumor mass was stripped and weighed. Inhibition rate (IR) was calculated according to the Equation 3. RTV and tumor weight (TW) for each group were analyzed through T-test.

[4] = Water-solubility test of compounds of Formula II and Formula IV; format: physicochemical; conditions: the C-20 phosphite salt (Formula II) itself, read-out: Water-solubility of Comp of Formula II
[5] = SD rats, 20 mg/kg HM 910 i.v. bolus, 2.5 hr, 20 mg/kg

## CC[C@@]1(O[PH](=O)[O-])C(=O)OCc2c1cc1n(c2=O)Cc2cc3ccccc3nc2-1.[Na+] [WQ1001]
[1]; SD rats, 20 mg/kg HM 910 i.v. bolus, 0.083 hr, 20 mg/kg
  HM 910 Plasma: 56652 ng/mL and 31029 ng/mL and 37348 ng/mL and 56722 ng/mL and 45165 ng/mL and 21141 ng/mL
[1]; SD rats, 20 mg/kg HM 910 i.v. bolus, 0.25 hr, 20 mg/kg
  HM 910 Plasma: 13690 ng/mL and 9484 ng/mL and 7271 ng/mL and 16294 ng/mL and 6761 ng/mL and 5639 ng/mL
[1]; SD rats, 20 mg/kg HM 910 i.v. bolus, 0.5 hr, 20 mg/kg
  HM 910 Plasma: 2530 ng/mL and 1425 ng/mL and 1633 ng/mL and 4582 ng/mL and 1536 ng/mL and 1628 ng/mL
[1]; SD rats, 20 mg/kg HM 910 i.v. bolus, 0.75 hr, 20 mg/kg
  HM 910 Plasma: 919 ng/mL and 574 ng/mL and 539 ng/mL and 1578 ng/mL and 617 ng/mL and 607 ng/mL
[1]; SD rats, 20 mg/kg HM 910 i.v. bolus, 1 hr, 20 mg/kg
  HM 910 Plasma: 499 ng/mL and 259 ng/mL and 240 ng/mL (2×) and 668 ng/mL and 256 ng/mL
[1]; SD rats, 20 mg/kg HM 910 i.v. bolus, 1.5 hr, 20 mg/kg
  HM 910 Plasma: 97.2 ng/mL and 78.0 ng/mL and 45.2 ng/mL and 162 ng/mL and 59.0 ng/mL and 96.4 ng/mL
[1]; SD rats, 20 mg/kg HM 910 i.v. bolus, 2 hr, 20 mg/kg
  HM 910 Plasma: 18.3 ng/mL and 25.7 ng/mL and 51.5 ng/mL and 39.5 ng/mL and 20.8 ng/mL and 53.7 ng/mL
[1]; [5]
  HM 910 Plasma: 28.2 ng/mL and 17.2 ng/mL and 18.4 ng/mL and 11.0 ng/mL
  HM 910 Plasma (ng/mL): BLQ
[1]; SD rats, 20 mg/kg HM 910 i.v. bolus, 3 hr
  HM 910 Plasma (ng/mL): BLQ
[1]; SD rats, 20 mg/kg HM 910 i.v. bolus, 4 hr
  HM 910 Plasma (ng/mL): BLQ
[1]; SD rats, 20 mg/kg i.v. bolus
  Fate of the tested drug after injection into the rats: degraded and the releases camptothecin
[1]; both sexes, Sprague-Dawley (SD), rat, plasma, iv, 20 mg/kg, 20 mg/kg HM 910 i.v. bolus, 0.083 hr, mean of rats
  concentration at 0.083 h: 41300 ng/mL
[1]; both sexes, Sprague-Dawley (SD), rat, plasma, iv, 20 mg/kg, 20 mg/kg HM 910 i.v. bolus, 0.25 hr, mean of rats
  concentration at 0.25 h: 9860 ng/mL
[1]; both sexes, Sprague-Dawley (SD), rat, plasma, iv, 20 mg/kg, 20 mg/kg HM 910 i.v. bolus, 0.5 hr, mean of rats
  concentration at 0.5 h: 2220 ng/mL
[1]; both sexes, Sprague-Dawley (SD), rat, plasma, iv, 20 mg/kg, 20 mg/kg HM 910 i.v. bolus, 0.75 hr, mean of rats
  concentration at 0.75 h: 806 ng/mL
[1]; both sexes, Sprague-Dawley (SD), rat, plasma, iv, 20 mg/kg, 20 mg/kg HM 910 i.v. bolus, 1 hr, mean of rats
  concentration at 1 h: 360 ng/mL
[1]; both sexes, Sprague-Dawley (SD), rat, plasma, iv, 20 mg/kg, 20 mg/kg HM 910 i.v. bolus, 1.5 hr, mean of rats
  concentration at 1.5 h: 89.6 ng/mL
[1]; both sexes, Sprague-Dawley (SD), rat, plasma, iv, 20 mg/kg, 20 mg/kg HM 910 i.v. bolus, 2 hr, mean of rats
  concentration at 2 h: 34.9 ng/mL
[1]; both sexes, Sprague-Dawley (SD), rat, plasma, iv, 20 mg/kg, 20 mg/kg HM 910 i.v. bolus, 2.5 hr, mean of rats
  concentration at 2.5 h: 18.7 ng/mL
[2]
  Resistance index: 6
[3]; 25 mg/kg
  anti-tumor effect on NCI-H929 xenografts in nude mice (in words): significant anti-tumor effect
[3]; HM910 l-dose 18 mg/kg
  IR By RTV %: 66.5%
  IR By TW %: 72.7%
  RTV (X ± SD): 13.5 ± 11.0
  TW (X ± SD, g): 0.41 ± 0.34 g
  Bw (X ± SD, g) end: 19.2 ± 0.9 g
  TV (X ± SD, mm^3) End: 653.0 ± 560.4 mm^3
  Bw (X ± SD, g) initial: 21.0 ± 1.6 g
  TV (X ± SD, mm^3) initial: 48.6 ± 4.9 mm^3
[3]; HM910 m-dose 25 mg/kg
  IR By RTV %: 75.7%
  IR By TW %: 82.0%
  RTV (X ± SD): 9.80 ± 11.6
  TW (X ± SD, g): 0.27 ± 0.35 g
  Bw (X ± SD, g) end: 18.5 ± 0.7 g
  TV (X ± SD, mm^3) End: 480.1 ± 570.6 mm^3
  Bw (X ± SD, g) initial: 17.3 ± 0.7 g
  TV (X ± SD, mm^3) initial: 48.2 ± 7.8 mm^3
[3]; HM910 h-dose 35 mg/kg
  IR By RTV %: 86.1%
  IR By TW %: 88.2%
  RTV (X ± SD): 5.61 ± 9.74
  TW (X ± SD, g): 0.18 ± 0.36 g
  Bw (X ± SD, g) end: 18.8 ± 0.6 g
  TV (X ± SD, mm^3) End: 272.3 ± 483.1 mm^3
  Bw (X ± SD, g) initial: 17.3 ± 0.7 g
  TV (X ± SD, mm^3) initial: 46.9 ± 8.8 mm^3
[3]; high dose, 35 mg/kg
  anti-tumor effect on NCI-H929 xenografts in nude mice (in words): significant anti-tumor effect
[3]; low-dose group, 18 mg/kg
  anti-tumor effect on NCI-H929 xenografts in nude mice (in words): significant anti-tumor effect
[4]
  solubility: > 10000 µg/mL
